The record followed here is PMC11879040, “Advancing systemic toxicity risk assessment: Evaluation of a NAM-based toolbox approach” (Toxicological Sciences, 2024).

The subject of one assay is HepG2 cells. As to the kind of experiment: High-throughput transcriptomics (HTTr, TempO-Seq), HepG2, 24 h. Format: cell-based, human. To be noted: HepG2; for pod_httr_bifrost PoD: HTTr BIFROST PoD; for podl_path_minbmd PoD: HTTr minimum pathway BMD(L). As to the method:
HepG2, HepaRG, and MCF7 cells were treated with each compound for 24 h across a dose range of 7 concentrations and lysed using TempO-Seq lysis buffer (BioSpyder Technologies, proprietary kit, see [Middleton et al. 2022] for method details). Sequencing was performed using TempO-Seq (BioClavis) version 2 of the human whole transcriptome panel and analyzed as described previously in Middleton et al.

In assay [1] the target is Voltage-dependent L-type Ca2+ channel (dihydropyridine site), CACNA1C (r) (Rattus norvegicus, UniProt P22002). The format is binding.
Voltage-dependent L-type Ca2+ channel (dihydropyridine site), CACNA1C (r), sequence (P22002 whole entry): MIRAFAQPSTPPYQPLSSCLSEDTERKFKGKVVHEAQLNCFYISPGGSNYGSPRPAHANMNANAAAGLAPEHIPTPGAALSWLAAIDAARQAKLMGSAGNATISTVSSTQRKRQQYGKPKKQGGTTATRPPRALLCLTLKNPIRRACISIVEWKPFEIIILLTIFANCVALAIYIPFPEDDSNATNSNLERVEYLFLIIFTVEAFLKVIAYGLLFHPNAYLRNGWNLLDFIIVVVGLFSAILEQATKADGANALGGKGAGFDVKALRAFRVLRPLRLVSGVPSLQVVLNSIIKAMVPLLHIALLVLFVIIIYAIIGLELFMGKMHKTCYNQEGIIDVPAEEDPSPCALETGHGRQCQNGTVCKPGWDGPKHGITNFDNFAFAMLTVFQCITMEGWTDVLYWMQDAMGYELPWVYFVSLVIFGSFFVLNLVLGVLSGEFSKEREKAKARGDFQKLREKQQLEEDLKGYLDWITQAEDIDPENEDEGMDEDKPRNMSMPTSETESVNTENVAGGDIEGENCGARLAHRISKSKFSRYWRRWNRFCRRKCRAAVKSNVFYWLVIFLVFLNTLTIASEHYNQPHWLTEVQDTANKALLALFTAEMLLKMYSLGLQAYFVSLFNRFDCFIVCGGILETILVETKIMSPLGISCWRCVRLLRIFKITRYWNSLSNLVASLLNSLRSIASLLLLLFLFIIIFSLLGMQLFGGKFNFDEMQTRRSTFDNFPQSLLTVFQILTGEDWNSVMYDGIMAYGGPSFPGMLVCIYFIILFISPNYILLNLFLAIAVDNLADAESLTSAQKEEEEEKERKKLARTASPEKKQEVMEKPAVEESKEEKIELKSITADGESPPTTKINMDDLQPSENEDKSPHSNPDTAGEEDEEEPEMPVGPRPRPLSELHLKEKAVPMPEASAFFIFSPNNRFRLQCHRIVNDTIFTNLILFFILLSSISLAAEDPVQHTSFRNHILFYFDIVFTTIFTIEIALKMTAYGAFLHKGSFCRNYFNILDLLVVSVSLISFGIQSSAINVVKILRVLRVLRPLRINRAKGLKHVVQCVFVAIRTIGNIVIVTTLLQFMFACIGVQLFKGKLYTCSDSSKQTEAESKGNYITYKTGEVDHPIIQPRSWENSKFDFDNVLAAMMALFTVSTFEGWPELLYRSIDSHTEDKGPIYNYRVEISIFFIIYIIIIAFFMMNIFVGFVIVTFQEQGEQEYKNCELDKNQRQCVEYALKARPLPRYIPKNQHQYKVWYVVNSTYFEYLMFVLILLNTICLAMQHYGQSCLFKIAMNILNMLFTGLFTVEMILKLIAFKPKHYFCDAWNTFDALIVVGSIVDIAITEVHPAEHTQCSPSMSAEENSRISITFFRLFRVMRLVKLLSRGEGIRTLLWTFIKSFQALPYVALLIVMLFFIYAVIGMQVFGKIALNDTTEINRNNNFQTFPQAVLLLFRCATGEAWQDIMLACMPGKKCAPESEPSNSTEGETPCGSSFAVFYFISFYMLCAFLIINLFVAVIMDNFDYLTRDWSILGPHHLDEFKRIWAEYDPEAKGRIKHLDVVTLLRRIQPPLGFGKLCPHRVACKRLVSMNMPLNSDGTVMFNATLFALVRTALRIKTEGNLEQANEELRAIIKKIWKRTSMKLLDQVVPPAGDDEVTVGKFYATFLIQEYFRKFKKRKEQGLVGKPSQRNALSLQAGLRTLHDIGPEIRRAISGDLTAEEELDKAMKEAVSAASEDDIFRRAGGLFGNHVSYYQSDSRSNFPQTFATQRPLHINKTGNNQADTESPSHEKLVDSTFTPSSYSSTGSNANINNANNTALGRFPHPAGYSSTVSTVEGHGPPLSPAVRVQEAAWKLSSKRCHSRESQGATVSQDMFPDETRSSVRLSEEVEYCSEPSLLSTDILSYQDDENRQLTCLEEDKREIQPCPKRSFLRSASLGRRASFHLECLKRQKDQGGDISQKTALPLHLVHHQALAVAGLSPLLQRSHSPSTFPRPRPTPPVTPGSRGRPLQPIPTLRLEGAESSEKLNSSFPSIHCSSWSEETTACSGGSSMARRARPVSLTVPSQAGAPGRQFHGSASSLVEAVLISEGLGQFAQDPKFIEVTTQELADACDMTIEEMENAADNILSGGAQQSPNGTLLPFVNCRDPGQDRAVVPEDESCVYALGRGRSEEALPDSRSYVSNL
In assay [2] the target is T1, 5-hydroxytryptamine receptor 3A, HTR3A (h) (Homo sapiens, UniProt P46098).
T1 sequence (P46098 24-478): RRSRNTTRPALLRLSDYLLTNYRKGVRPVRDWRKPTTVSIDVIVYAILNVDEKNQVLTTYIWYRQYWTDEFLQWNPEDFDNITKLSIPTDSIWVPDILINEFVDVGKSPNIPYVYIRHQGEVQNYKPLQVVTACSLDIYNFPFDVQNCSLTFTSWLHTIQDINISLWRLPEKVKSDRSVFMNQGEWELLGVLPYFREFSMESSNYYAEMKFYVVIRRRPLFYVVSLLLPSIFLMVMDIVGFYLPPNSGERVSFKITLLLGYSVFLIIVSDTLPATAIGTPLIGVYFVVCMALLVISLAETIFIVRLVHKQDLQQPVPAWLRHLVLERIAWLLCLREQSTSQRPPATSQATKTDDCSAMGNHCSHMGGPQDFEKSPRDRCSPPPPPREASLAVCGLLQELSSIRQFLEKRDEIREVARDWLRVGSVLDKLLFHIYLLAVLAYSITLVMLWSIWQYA
The settings on record: control MDL 72222.

Assay [3] has as its target 5-hydroxytryptamine receptor 1B, HTR1B (h) (Homo sapiens, UniProt P28222). The format is binding. The settings on record: IPP screening at 10 uM; control serotonin.
Assay [4] has as its target T2, 5-hydroxytryptamine receptor 1A, HTR1A (h) (Homo sapiens, UniProt P08908).
T2 sequence (P08908 1-422): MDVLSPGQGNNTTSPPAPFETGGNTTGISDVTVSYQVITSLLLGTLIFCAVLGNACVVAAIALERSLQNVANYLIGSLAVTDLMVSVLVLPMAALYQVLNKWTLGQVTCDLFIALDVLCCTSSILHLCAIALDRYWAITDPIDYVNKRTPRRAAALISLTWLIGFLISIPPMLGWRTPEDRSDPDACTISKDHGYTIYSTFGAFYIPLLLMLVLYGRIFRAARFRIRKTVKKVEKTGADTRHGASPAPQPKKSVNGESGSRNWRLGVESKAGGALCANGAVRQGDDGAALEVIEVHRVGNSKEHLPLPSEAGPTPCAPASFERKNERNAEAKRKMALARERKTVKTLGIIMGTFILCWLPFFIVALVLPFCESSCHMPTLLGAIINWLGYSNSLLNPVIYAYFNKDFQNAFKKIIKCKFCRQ
To be noted: control 8-OH-DPAT.

The test system of assay [5] is Glutamate receptor ionotropic NMDA 1 non-selective, GRIN1 (r).
For assay [6], the target named is T3, Alpha-2A adrenergic receptor, ADRA2A (h) (Homo sapiens, UniProt P08913).
T3 sequence (P08913 1-465): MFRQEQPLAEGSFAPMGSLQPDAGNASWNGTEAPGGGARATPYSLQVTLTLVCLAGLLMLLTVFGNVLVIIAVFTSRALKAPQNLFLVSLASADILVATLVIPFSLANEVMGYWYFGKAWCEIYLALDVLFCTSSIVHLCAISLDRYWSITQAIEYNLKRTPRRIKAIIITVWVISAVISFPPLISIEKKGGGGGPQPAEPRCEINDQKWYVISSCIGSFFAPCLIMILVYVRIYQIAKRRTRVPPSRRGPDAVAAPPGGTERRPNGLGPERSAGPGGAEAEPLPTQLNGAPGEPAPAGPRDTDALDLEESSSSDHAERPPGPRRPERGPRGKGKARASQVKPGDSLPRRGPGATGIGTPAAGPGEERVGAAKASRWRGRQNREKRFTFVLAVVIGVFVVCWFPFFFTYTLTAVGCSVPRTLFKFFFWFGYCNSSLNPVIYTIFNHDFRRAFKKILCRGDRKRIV
To be noted: control yohimbine.

For assay [7], the target named is Cannabinoid receptor 1, CNR1 (h) (Homo sapiens, UniProt P21554). The format is binding. To be noted: control CP 55940.
Cannabinoid receptor 1, CNR1 (h), sequence (P21554 whole entry): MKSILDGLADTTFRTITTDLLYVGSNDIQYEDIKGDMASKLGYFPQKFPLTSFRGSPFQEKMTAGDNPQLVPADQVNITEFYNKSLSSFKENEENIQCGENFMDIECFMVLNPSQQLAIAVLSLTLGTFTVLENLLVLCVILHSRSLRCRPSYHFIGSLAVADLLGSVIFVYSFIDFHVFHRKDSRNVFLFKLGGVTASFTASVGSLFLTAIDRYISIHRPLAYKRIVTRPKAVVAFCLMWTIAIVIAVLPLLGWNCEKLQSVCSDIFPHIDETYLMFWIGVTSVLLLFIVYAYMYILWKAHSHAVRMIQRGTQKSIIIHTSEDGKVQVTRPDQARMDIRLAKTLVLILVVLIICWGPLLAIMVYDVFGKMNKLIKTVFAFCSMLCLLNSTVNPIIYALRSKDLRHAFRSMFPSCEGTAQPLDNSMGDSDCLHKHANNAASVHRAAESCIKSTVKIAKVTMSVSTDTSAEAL
In assay [8] the target is Dopamine receptor D2, DRD2 (h) (Homo sapiens, UniProt P14416). The settings on record: control 7-OH-DPAT.
Dopamine receptor D2, DRD2 (h), sequence (P14416 whole entry): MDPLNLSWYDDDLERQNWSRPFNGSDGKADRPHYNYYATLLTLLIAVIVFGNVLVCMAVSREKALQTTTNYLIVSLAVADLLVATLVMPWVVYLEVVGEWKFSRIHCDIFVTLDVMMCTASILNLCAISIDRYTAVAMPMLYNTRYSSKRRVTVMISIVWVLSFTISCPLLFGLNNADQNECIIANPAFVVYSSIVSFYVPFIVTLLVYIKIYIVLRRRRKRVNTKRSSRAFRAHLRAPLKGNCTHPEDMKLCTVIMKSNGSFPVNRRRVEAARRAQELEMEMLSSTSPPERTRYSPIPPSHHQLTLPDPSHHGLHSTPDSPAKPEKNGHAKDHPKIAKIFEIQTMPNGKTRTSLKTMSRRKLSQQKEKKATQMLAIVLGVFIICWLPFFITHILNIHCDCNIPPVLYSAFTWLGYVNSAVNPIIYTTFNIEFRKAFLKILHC
For assay [9], the target named is Kappa-type opioid receptor OPRK1 (h) (Homo sapiens, UniProt P41145). The settings on record: control U 50488.
Kappa-type opioid receptor OPRK1 (h), sequence (P41145 whole entry): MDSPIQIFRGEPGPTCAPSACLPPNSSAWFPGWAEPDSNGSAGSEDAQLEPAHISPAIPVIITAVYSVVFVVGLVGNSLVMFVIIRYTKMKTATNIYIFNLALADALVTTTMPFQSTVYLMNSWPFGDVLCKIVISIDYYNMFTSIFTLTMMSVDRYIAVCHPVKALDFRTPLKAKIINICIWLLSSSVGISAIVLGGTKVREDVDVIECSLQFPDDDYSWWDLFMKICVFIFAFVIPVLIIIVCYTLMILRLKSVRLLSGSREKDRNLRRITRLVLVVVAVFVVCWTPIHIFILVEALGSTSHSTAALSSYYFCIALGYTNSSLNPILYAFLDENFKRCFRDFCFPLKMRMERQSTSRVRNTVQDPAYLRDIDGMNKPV
Assay [10] has as its target T4, Estrogen receptor, ER1 (h) (Homo sapiens, UniProt P03372).
T4 construct: purchased Eurofins Cerep (SafetyScreen44-based IPP panel)
T4 sequence (P03372 1-595): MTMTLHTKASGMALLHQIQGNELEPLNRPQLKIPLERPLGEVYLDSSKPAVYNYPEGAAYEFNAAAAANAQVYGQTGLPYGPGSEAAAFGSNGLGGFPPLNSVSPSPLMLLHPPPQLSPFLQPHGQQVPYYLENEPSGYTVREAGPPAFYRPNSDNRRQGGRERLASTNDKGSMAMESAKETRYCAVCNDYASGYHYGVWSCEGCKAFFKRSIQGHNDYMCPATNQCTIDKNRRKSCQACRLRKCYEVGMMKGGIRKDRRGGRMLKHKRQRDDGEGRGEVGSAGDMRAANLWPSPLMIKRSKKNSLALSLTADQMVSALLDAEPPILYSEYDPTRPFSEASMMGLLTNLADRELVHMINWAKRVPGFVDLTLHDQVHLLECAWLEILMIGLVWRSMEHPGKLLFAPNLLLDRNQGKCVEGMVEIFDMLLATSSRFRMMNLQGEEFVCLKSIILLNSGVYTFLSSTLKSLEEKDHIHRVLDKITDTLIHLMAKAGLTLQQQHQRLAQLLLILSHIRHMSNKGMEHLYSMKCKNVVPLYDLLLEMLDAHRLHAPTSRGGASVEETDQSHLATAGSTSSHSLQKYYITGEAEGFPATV
The assay can be described thus: IPP ER1 coactivator recruitment (antagonist). The format is biochemical. The settings on record: estriol.

The mark [11] stands for this setting: IPP screening at 10 uM, control CGS 19755.

Where two headings read alike, the source gives them in different places.

5-hydroxytryptamine receptor 1B, HTR1B (h), sequence (P28222 whole entry): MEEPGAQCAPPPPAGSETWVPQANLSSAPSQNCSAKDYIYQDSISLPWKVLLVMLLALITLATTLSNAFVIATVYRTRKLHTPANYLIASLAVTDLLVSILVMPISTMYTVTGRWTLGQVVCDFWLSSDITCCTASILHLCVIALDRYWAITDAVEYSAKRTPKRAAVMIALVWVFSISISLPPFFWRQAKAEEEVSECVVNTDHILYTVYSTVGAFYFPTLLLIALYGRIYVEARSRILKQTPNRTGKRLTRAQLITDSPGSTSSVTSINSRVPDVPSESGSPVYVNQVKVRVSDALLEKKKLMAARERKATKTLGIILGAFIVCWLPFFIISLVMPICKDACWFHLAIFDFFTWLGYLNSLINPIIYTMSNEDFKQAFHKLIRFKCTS

As to `CCOP(=S)(OCC)Oc1nc(Cl)c(Cl)cc1Cl` [Chlorpyrifos, O,O-Diethyl O-(3,5,6-trichloropyridin-2-yl) phosphorothioate], the “pod_httr_bifrost PoD” value in the assay with HepG2 cells was determined as 0.000303 µM. Further, in the assay on HepG2 cells, the “podl_path_minbmd PoD” value is 2.42 µM. In addition, the Specific binding is recorded as 47.7% in assay [1]; -1.0% in assay [2] (IPP screening at 10 uM); -20.1% in [3]; 11.6% in assay [4] (IPP screening at 10 uM); 0.2% in [5] (setting [11]); -3.7% in [6] (IPP screening at 10 uM). The values for the Specific binding in [7] (IPP screening at 10 uM), in assay [8] (IPP screening at 10 uM) and in [9] (IPP screening at 10 uM) were 26.0%, 12.6% and 27.7%, respectively. The “IPP screening %, Coactivator recruitment” value in assay [10] (10 uM) amounted to 9.0%.

On to `CC(C)(C)c1ccc(CCOc2ncnc3ccccc23)cc1` [Fenazaquin, 4-[2-(4-tert-Butylphenyl)ethoxy]quinazoline], for which the “pod_httr_bifrost PoD” value in the assay on HepG2 cells came to 0.0002567 µM. Also, the “podl_path_minbmd PoD” value in the assay with HepG2 cells is on record as 0.002178 µM. The Specific binding in [1] (IPP screening at 10 uM, control nitrendipine) is 19.8%; in [2] (IPP screening at 10 uM) it was -0.1%; in assay [3], -2.2%; in [4] (IPP screening at 10 uM) it was -11.2%; in assay [5] (setting [11]), 0.6%; in assay [6] (IPP screening at 10 uM) it was 5.2%. Further, the Specific binding in [7] (IPP screening at 10 uM) is reported as 57.0%; in assay [8] (IPP screening at 10 uM), 16.5%; in assay [9] (IPP screening at 10 uM) it was 56.7%. For the same compound, the “IPP screening %, Coactivator recruitment” value in assay [10] (10 uM) came out at 4.0%.

Consider `CC1(C)O[C@@H]2[C@@H](CO[C@@]3(COS(N)(=O)=O)OC(C)(C)O[C@@H]23)O1` [Topiramate, [(3aS,5aR,8aR,8bS)-2,2,7,7-Tetramethyltetrahydro-2H,3aH,7H-bis[1,3]dioxolo[4,5-b:4',5'-d]pyran-3a-yl]methyl sulfamate (non-preferred name)], for which the “pod_httr_bifrost PoD” value in the assay with HepG2 cells is listed as 3696.73 µM. In addition, in the assay with HepG2 cells, the “podl_path_minbmd PoD” value is on record as 6631.79 µM. Moreover, the Specific binding was -33.5% in assay [1]; -1.3% in assay [2] (IPP screening at 100 uM); 18.5% in assay [4] (IPP screening at 100 uM); -5.1% in [5] (IPP screening at 100 uM, control CGS 19755); -5.6% in assay [6] (IPP screening at 100 uM); 10.5% in assay [7] (IPP screening at 100 uM). The values for the Specific binding in assay [8] (IPP screening at 100 uM) and in assay [9] (IPP screening at 100 uM) were 13.3% and 3.7%, respectively. Also, the “IPP screening %, Coactivator recruitment” value in assay [10] (100 uM, * denotes assay interference (2-Amino-6-chloro-4-nitrophenol, HC Red 3)) is reported as -1.0%.

On to “(4S,4aR,5S,5aR,6S,12aS)-4-(Dimethylamino)-3,5,6,10,12,12a-hexahydroxy-6-methyl-1,11-dioxo-1,4,4a,5,5a,6,11,12a-octahydrotetracene-2-carboxamide--hydrogen chloride (1/1) [Oxytetracycline hydrochloride]”, for which the Specific binding in assay [1] is -32.1%; in assay [2] (IPP screening at 10 uM), -6.5%; in assay [3], -8.9%; in assay [4] (IPP screening at 10 uM), 1.5%; in assay [5] (setting [11]), 2.8%; in [6] (IPP screening at 10 uM), -1.4%. Also, the Specific binding was 25.7% in [7] (IPP screening at 10 uM), 22.7% in [8] (IPP screening at 10 uM) and 7.3% in [9] (IPP screening at 10 uM).

Consider “mixture of 2- and 3-tert-butyl-4-methoxyphenol [Butylated Hydroxyanisole]”, for which the Specific binding is given as -14.2% in assay [1]; 15.3% in assay [2] (IPP screening at 10 uM); 0.6% in [3]; -7.7% in assay [4] (IPP screening at 10 uM); 2.2% in assay [5]; 1.5% in [6] (IPP screening at 10 uM). Besides, the Specific binding in assay [7] (IPP screening at 10 uM) is -27.5%; in assay [8] (IPP screening at 10 uM) it was -16.2%; in assay [9] (IPP screening at 10 uM), 13.5%.
